Reference: patent US9765065B2, “Therapeutic substituted cyclopentanes” (ALLERGAN, INC., priority 2007, dated 2017)

What was measured:
EP2 [1] = target: T1, EP2 (Homo sapiens, UniProt P43116); assay: EP2 binding Ki
Excerpt: (§1) U.S. patent application Ser. No. 11/553,143, filed on Oct. 26, 2006, incorporated by reference herein in its entirety, describes the methods used to obtain the in vitro data in the table below.

hTP = target: T2, hTP (Homo sapiens, UniProt P21731); assay: Other receptors hTP; assay type: cell-based
T2 sequence (P21731 1-343): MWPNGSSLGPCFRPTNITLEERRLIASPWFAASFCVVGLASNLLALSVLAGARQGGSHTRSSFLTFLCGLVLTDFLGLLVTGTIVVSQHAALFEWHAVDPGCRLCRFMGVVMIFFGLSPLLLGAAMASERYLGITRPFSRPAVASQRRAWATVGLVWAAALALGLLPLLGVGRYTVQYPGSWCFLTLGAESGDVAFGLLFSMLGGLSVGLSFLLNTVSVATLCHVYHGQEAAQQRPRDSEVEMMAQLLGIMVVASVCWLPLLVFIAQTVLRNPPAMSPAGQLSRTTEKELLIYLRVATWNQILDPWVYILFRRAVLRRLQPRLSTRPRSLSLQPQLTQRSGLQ
Excerpt: as §1

EP4 [2] = target: T3, EP4 (Homo sapiens, UniProt P35408); assay: EP4 binding Ki
Excerpt: as §1

EP2 [3] = target: T1, EP2; assay: EP2 cAMP; assay type: cell-based
Excerpt: as §1

hEP3A = target: T4, hEP3A (Homo sapiens, UniProt P43115); assay: Other receptors hEP3A; assay type: cell-based
T4 sequence (P43115 1-390): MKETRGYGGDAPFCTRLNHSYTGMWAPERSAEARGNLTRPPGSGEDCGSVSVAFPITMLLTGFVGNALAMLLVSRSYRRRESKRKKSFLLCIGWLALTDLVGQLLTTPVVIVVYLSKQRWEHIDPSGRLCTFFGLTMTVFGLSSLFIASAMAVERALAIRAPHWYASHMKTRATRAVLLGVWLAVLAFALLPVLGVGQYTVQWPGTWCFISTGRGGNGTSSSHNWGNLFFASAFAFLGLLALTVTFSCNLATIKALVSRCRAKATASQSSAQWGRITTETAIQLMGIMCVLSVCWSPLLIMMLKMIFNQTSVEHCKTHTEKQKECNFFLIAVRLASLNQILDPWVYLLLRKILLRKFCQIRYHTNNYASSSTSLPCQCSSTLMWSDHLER
Excerpt: as §1

EP2 [4] = target: T1, EP2; assay: EP2 flipr; assay type: cell-based
Excerpt: as §1

EP4 [5] = target: T3, EP4; assay: EP4 flipr; assay type: cell-based
Excerpt: as §1

hDP = target: T5, hDP (Homo sapiens, UniProt Q13258); assay: Other receptors hDP; assay type: cell-based
T5 sequence (Q13258 1-359): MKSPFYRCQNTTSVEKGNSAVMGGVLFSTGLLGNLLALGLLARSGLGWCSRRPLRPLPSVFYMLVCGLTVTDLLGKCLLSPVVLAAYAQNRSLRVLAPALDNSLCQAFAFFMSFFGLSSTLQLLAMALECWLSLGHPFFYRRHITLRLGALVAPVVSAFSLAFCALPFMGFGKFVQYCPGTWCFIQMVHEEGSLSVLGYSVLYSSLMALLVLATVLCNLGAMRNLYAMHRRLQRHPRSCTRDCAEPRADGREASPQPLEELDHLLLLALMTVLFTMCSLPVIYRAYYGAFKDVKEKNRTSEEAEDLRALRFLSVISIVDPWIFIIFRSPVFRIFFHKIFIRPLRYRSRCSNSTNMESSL
Excerpt: as §1

T1 sequence (P43116 whole entry): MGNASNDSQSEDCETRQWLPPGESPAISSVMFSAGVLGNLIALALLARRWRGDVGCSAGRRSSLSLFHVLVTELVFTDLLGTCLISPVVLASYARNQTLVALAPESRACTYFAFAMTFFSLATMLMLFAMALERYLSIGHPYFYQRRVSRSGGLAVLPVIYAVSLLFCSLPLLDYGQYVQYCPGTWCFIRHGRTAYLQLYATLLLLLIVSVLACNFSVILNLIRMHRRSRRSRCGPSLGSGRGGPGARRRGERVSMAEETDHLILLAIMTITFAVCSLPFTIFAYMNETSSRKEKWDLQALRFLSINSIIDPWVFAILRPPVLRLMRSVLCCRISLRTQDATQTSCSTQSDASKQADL
T3 sequence (P35408 whole entry): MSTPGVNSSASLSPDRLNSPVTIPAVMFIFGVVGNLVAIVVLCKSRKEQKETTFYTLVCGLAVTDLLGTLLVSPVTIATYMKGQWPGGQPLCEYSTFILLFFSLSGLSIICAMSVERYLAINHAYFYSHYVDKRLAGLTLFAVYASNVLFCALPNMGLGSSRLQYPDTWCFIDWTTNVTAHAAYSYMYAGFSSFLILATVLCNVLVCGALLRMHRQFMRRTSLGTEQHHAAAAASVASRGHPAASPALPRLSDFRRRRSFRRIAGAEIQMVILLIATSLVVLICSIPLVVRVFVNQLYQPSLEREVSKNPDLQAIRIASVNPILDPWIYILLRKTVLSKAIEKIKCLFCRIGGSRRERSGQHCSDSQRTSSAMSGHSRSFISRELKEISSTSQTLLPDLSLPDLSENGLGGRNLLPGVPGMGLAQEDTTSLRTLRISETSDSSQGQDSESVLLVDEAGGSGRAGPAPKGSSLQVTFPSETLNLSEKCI

Ki (EP2 [1]) | EC50 (hTP) | Ki (EP4 [2]) | EC50 (EP2 [3]) | EC50 (hEP3A) | EC50 (EP2 [4]) | EC50 (EP4 [5]) | EC50 (hDP) | SMILES
2.2 nM | > 10000 nM | 440 nM | 0.2 nM | > 10000 nM | 37 nM | > 10 µM |  | O=C(O)c1ccc(C=CC[C@@H]2[C@@H](C=Cc3cc(Cl)cc(Cl)c3)[C@H](O)C[C@H]2Cl)s1 [Example 1, 5-(3-((1R,2R,3R,5R)-5-chloro-2-(3,5-dichlorostyryl)-3-hydroxycyclopentyl)prop-1-enyl)thiophene-2-carboxylic acid]
7 nM | 65300 nM | 878 nM | 0.3 nM |  | 22 nM | > 10 µM |  | O=C(O)c1ccc(CCC[C@@H]2[C@@H](/C=C/c3cc(F)cc(F)c3)[C@H](O)C[C@H]2Cl)s1 [Example 6, 5-(3-((1R,2R,3R,5R)-5-chloro-2-((E)-3,5-difluorostyryl)-3-hydroxycyclopentyl)propyl)thiophene-2-carboxylic acid]
425 nM | 95 nM | 3220 nM | 207 nM |  | 7140 nM |  | 6370 nM | O=C(O)c1ccc(CCC[C@@H]2[C@@H](/C=C\c3cc(F)cc(F)c3)[C@H](O)C[C@H]2Cl)s1 [Example 7, 5-(3-((1R,2R,3R,5R)-5-chloro-2-((Z)-3,5-difluorostyryl)-3-hydroxycyclopentyl)propyl)thiophene-2-carboxylic acid]
2 nM | 3760 nM | 144 nM | 0.1 nM | 9880 nM | 17 nM | 16.9 µM | 12300 nM | Cc1cccc(/C=C/[C@@H]2[C@@H](CCCc3ccc(C(=O)O)s3)[C@H](Cl)C[C@H]2O)c1 [Example 12, 5-(3-((1R,2R,3R,5R)-5-chloro-3-hydroxy-2-(3-methylstyryl)cyclopentyl)propyl)thiophene-2-carboxylic acid]
